In PubChem BioAssay (NCI):
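A five-concentration, 48-hour dose response in 96-well plates underlies each endpoint, interpolated linearly between surrounding concentrations. TGI is the concentration that stops growth completely.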

How the values were obtained:
Experiment in all cases: DTP human tumour cell line panel, 48 h
HS 578T breast = test system: HS 578T breast
OVCAR-8 ovarian = test system: OVCAR-8 ovarian
786-0 renal = test system: 786-0 renal
MCF7 breast = test system: MCF7 breast
BT-549 breast = test system: BT-549 breast
IGROV1 ovarian = test system: IGROV1 ovarian
UO-31 renal = test system: UO-31 renal
RXF 393 renal = test system: RXF 393 renal
NCI-H23 lung = test system: NCI-H23 lung
RPMI-8226 leukemia = test system: RPMI-8226 leukemia
NCI-H226 lung = test system: NCI-H226 lung
HL-60(TB) leukemia = test system: HL-60(TB) leukemia
HT29 colon = test system: HT29 colon
A498 renal = test system: A498 renal
SF-295 CNS = test system: SF-295 CNS
U251 CNS = test system: U251 CNS
NCI-H522 lung = test system: NCI-H522 lung
CAKI-1 renal = test system: CAKI-1 renal
SR leukemia = test system: SR leukemia

Row | Compound | TGI (HS 578T breast) [µM] | TGI (OVCAR-8 ovarian) [µM] | TGI (786-0 renal) [µM] | TGI (MCF7 breast) [µM] | TGI (BT-549 breast) [µM] | TGI (IGROV1 ovarian) [µM] | TGI (UO-31 renal) [µM] | TGI (RXF 393 renal) [µM] | TGI (NCI-H23 lung) [µM] | TGI (RPMI-8226 leukemia) [µM] | TGI (NCI-H226 lung) [µM] | TGI (HL-60(TB) leukemia) [µM] | TGI (HT29 colon) [µM] | TGI (A498 renal) [µM] | TGI (SF-295 CNS) [µM] | TGI (U251 CNS) [µM] | TGI (NCI-H522 lung) [µM] | TGI (CAKI-1 renal) [µM] | TGI (SR leukemia) [µM]
1 | Cc1ccc(S(=O)(=O)N2CCCSCCN(S(=O)(=O)c3ccc(C)cc3)CCCSCC2)cc1 | > 100 | > 100 | > 100 | > 100 | > 100 | > 100 | > 100 | > 100 | > 100 | > 100 | > 100 | > 100 | > 100 | > 100 | > 100 | > 100 |  |  | 
2 | Cc1nc2ccccc2n1Cc1nnc2n1N=C(c1ccccc1)CS2 | > 100 |  | > 100 | > 100 | 80.8 | 20.1 | > 100 |  | > 100 | > 100 | > 100 | 95.3 | > 100 | > 100 | > 100 | > 100 | 71.2 | > 100 | 
3 | CCN(CC)CC(=O)Nc1ccc2c(c1)C(=O)c1ccc(NC(=O)CN(CC)CC)cc1C2=O |  | 94.9 | 47.2 |  |  | 51.6 | > 100 | 29.7 | > 100 | > 100 |  | 44.5 | > 100 | > 100 | > 100 | 47 | 43.2 | > 100 | 41.7
4 | O=C1C=C2CC[C@H]3[C@@H]4CC[C@H](Oc5c6ccccc6nc6ccccc56)[C@H]4CC[C@@H]3[C@H]2CC1 | > 100 | > 100 | > 100 |  | > 100 | > 100 |  | 91.5 | > 100 |  | > 100 | 47.4 | > 100 |  | > 100 | > 100 |  | > 100 | 
5 | CN=C(NC)N(C)c1nc(=[N+](C)C)ss1 |  | > 100 | > 100 |  |  | > 100 | > 100 | > 100 | > 100 |  | > 100 | > 100 | > 100 | > 100 | > 100 | > 100 | > 100 | 98.3 | > 100
6 | COc1ccc(-c2nc3cc(C(F)(F)F)ccc3n2CC2CCCN3CCCCC23)cc1 (configuration not stated) | 31.1 | 30.8 | 35.6 | 25.9 |  | 26.9 | 38.8 | 33.8 | 29 | 28.4 | 32.3 | 30.6 | 26.1 | 26.2 | 36.6 | 30.7 | 29.2 | 59.6 | 31.3
7 | NC(C(=O)OC(=O)c1ccccc1)C(=O)OC(=O)c1ccccc1 | > 100 | > 100 | > 100 | > 100 | > 100 |  | > 100 | > 100 | > 100 | > 100 | > 100 |  | > 100 | > 100 | > 100 | > 100 | > 100 | > 100 | 
8 | CCOC(=O)C1=C(C)NC(C)=C(C(=O)OCC)C1c1ccc(C)cc1 | > 100 | > 100 | 45.8 | 47.3 | > 100 | > 100 | > 100 | 75.5 | > 100 | 85.8 | > 100 |  | > 100 | 97.9 | > 100 | > 100 | 94.2 | > 100 | 
9 | O=[N+]([O-])c1ccc(O)c(C=NCC2CCCN3CCCCC23)c1 (configuration not stated) | 46.6 | > 100 | > 100 | > 100 | > 100 | > 100 | > 100 | 59.7 | > 100 |  | 89.9 |  | > 100 |  | > 100 |  | > 100 | > 100 | 
10 | Brc1ccc(-c2cc(-c3ccc4c(c3)OCO4)c(-c3cccs3)n2Cc2ccccc2)cc1 | > 100 | > 100 | > 100 | > 100 |  | > 100 | > 100 | > 100 |  | > 100 |  | > 100 | > 100 |  | > 100 | > 100 |  | > 100 | > 100
11 | NC(=O)C1N=NSC1NC(=O)c1ccc([N+](=O)[O-])cc1 (configuration not stated) | > 100 | > 100 | > 100 | > 100 | > 100 | > 100 | > 100 | > 100 | > 100 | > 100 | > 100 |  | > 100 |  | > 100 | > 100 |  | > 100 | 
12 | CC(=O)N(C(C)=O)n1nc2c(n1)C(=O)c1ccccc1C2=O | > 100 | > 100 | > 100 | > 100 | > 100 | > 100 | > 100 | > 100 | > 100 | > 100 |  | > 100 | > 100 | > 100 | > 100 | > 100 | > 100 | > 100 | 
13 | CN(C)Cc1cc(C(=O)/C=C/c2ccc(F)cc2)cc(CN(C)C)c1O | 86.9 | 83.9 | > 100 | 42.4 |  | > 100 | 38.9 | 46.9 | > 100 | > 100 | > 100 | 35.4 | > 100 | 94.8 | 31.6 | > 100 | 31.7 | 67.3 | 71.4
14 | COc1ccc(N(C(=O)NCCO)c2ccccc2)cc1 | > 100 | > 100 | > 100 | > 100 |  | > 100 | > 100 | > 100 | > 100 | > 100 | > 100 | > 100 | > 100 | > 100 | > 100 | > 100 | > 100 | > 100 | > 100
15 | O=S(=O)(O)c1ccccc1N=Nc1ccc(N=Nc2c(O)ccc3ccccc23)c(S(=O)(=O)O)c1 | > 100 | > 100 | > 100 |  | > 100 | > 100 | > 100 | > 100 | > 100 | > 100 | > 100 |  | > 100 |  | > 100 | > 100 | > 100 | > 100 | 
